{"source": "patent US20110136151A1", "about": "“ASSAYS FOR DIAGNOSING AND EVALUATING TREATMENT OPTIONS FOR POMPE DISEASE” (AMICUS THERAPEUTICS, INC., priority 2008, published 2011)", "key": {"GAA [1]": {"tested_on": "GAA", "assay": "GAA levels after longer treatment of cynomolgus monkeys", "format": "in vivo", "details": "treatment 4-13 weeks"}, "GAA [2]": {"target": "T1, GAA (Mus musculus, UniProt P70699)", "T1 construct": "treatment of wild type mice and cynomolgus monkeys for longer periods of time; from tissue; host or cells: wild type mice", "T1 sequence (P70699 70-953)": "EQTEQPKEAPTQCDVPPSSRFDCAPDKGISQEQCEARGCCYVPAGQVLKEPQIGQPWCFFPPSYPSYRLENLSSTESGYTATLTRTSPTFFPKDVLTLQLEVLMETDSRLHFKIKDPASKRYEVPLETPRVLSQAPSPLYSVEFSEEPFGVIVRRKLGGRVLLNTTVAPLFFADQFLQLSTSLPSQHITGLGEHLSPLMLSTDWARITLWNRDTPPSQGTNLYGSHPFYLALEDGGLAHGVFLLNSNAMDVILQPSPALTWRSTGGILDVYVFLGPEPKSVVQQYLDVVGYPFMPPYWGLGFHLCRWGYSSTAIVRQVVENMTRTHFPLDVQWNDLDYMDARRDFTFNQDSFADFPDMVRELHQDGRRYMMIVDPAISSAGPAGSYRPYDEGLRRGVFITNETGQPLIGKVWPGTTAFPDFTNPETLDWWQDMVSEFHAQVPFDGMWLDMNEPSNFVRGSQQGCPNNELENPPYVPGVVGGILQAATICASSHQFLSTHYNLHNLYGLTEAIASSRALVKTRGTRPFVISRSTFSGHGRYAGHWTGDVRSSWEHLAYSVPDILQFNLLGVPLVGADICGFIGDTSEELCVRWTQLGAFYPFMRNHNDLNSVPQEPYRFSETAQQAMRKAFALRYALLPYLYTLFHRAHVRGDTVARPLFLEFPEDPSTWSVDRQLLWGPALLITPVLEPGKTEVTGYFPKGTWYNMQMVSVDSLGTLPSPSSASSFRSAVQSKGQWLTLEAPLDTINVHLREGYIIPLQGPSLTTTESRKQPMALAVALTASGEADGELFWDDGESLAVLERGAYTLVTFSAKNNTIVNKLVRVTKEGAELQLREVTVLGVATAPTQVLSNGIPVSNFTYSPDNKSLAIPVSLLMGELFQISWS", "assay": "GAA levels after longer treatment of wild type mice", "format": "in vivo", "details": "treatment 4-13 weeks"}, "acid α-glucosidase (GAA)": {"tested_on": "acid α-glucosidase (GAA)", "assay": "Ex vivo GAA enhancement assay in Pompe patient-derived lymphoblast cell lines treated with DNJ (4-MU-alpha-Glc lysate activity)", "format": "cell-based, human", "details": "five days", "method": "Lymphoblast cell lines were derived from 26 patients and treated with DNJ (0, 30, 100 and 300 μM) for five days. Lymphoblastoid cell lines (LCLs) are leukocyte cultures (primarily B cells) that have been transformed with the Epstein-Barr Virus (EBV) to produce proliferative suspension cultures. Leukocyte cultures were prepared as described in Example 2, and transformed with the EBV to establish the lymphoblast cells. Because well established LCLs can be very fast-growing (even those with genetic and metabolic disorders), their density must be carefully controlled to prevent overcrowding over an extended period. The following protocol details cell seeding density, treatment with a test compound (i.e. DNJ) treatment compound washout, lysing, and assaying of LCLs for the measurement of acid α-glucoside (GAA) with the test compound.\n• 1. All cell culture work was performed in a BLII Bio-safety cabinet using sterile techniques. LCL culture was expanded to a T75 by transferring 7e^6-1e^7 cells total to a T75 and add 40 ml 37° C. complete growth media. • 2. Optimal LCL cultures were selected in T75 flasks based on cell density and viability. A cell count was performed on these cultures. Usually a cell density of 1e^6 cells/ml maintains LCLs at the highest viability (90-98% viable). Cells densities higher than 1e^6 cells/ml drastically reduce the overall viability in the culture. • 3. A sterile 50 ml conical centrifuge tube was used to prepare a cell suspension in the appropriate amount of complete growth media to obtain a final cell density of approximately 2.0×10^5 cells/ml at a volume of at least 20 ml. (For example, if the original culture contains 1e^6 cells/ml, 16 ml media should be added to 4 ml of the cell suspension in the staging tube to create a density of 2e^5 cells/ml in a volume of 20 ml.). Cell suspensions were dispensed into four labeled T25 flasks at 5 ml each total volume. This process is repeated for each LCL to be processed. All flasks were placed in a humidified 5% CO2 37° C. incubator overnight. The original T75 cultures can be expanded and returned to the same incubator, if necessary. 5. Treatment with Test Compound • 1. Treatment of the cells with the DNJ test compound was performed 24 hours after the cells were seeded into T25 flasks. • 2. 5 ml of each treatment concentration is required for each cell line. Cell lines were treated with test compound over a concentration range of 0, x, 3x, and 10x test compound. • 3. A 2x stock of test compound solution was prepared in sterile 15 ml or 50 ml centrifuge tubes for each condition and 5 ml solution was added to 5 ml pre-incubated culture. Stock concentrations of 0, 60, 200, and 600 μM DNJ were made; when added to the flasks, the final concentrations were 0, 30, 100, and 300 μM DNJ. • 4. Each set of flasks were marked with the appropriate treatment concentrations, and 5 ml from the corresponding stock suspension were added to each flask. All flasks were returned to the incubator for 5 days.\n• 1. After five days (120 hours) of treatment, 100% of the media was exchanged in the cell suspension with compound-free complete media in the following manner; • 2. The contents of each T25 was transferred to a sterile 15 ml conical centrifuge tube that had been pre-numbered to maintain order of concentration range. • 3. After each set was transferred, each T25 was washed with 5 ml blank RPMI 1640 (no phenol red). • 4. The tubes were centrifuged at 21° C. for 10 min at 600 g. During the spin, the blank RPMI was removed from the flasks by aspiration, maintaining sterility. • 5. Following the centrifugation, the supernatant was removed from the tubes by aspiration and the pellets were resuspended in 10 ml complete media. The cell suspensions were transferred back to their respective flasksAll flasks were returned to the 5% CO2 37° C. incubator overnight."}, "[3]": {"details": "24/26 patient lymphoblast cell lines, DNJ 30-300 μM"}, "[4]": {"details": "patient cell lines with at least one missense mutation"}, "[5]": {"details": "patient cell lines with one copy of IVS1 13T>G and one copy of a non-missense null mutation"}}, "data": [{"compound": "OC[C@H]1NCC(O)[C@@H](O)C1O", "note": "(stereo partly drawn) [DNJ, 1-deoxynojirimycin]", "values": [{"measurement": "increase in GAA levels", "setting": "GAA [1]", "result": "≥ 2", "unit": "fold"}, {"measurement": "increase in GAA levels", "setting": "GAA [2]", "result": "≥ 2", "unit": "fold"}, {"measurement": "increase in GAA levels, mean", "setting": "acid α-glucosidase (GAA); [3]", "result": 93, "unit": "%"}, {"measurement": "increase in GAA levels, range", "setting": "acid α-glucosidase (GAA); [3]", "result": "7-620%"}, {"measurement": "dose-dependent increase in GAA levels, mean", "setting": "acid α-glucosidase (GAA); [4]", "result": 219, "unit": "%"}, {"measurement": "dose-dependent increase in GAA levels, range", "setting": "acid α-glucosidase (GAA); [4]", "result": "7-620%"}, {"measurement": "increase in GAA levels, mean", "setting": "acid α-glucosidase (GAA); [5]", "result": 22, "unit": "%"}, {"measurement": "increase in GAA levels, range", "setting": "acid α-glucosidase (GAA); [5]", "result": "7-51%"}, {"measurement": "patient cell lines with dose-dependent increase in GAA levels", "setting": "acid α-glucosidase (GAA); patient-derived lymphoblasts, DNJ 0, 30, 100 and 300 μM", "result": "24/26"}]}]}
